From PMC7179302, “Lead Optimization of Dehydroemetine for Repositioned Use in Malaria” (Antimicrobial Agents and Chemotherapy, 2020)
Counter-ions that a name gives are not always drawn.

Columns and labels:
[1] = tested on: K1 strain of P. falciparum; assay: IC50 determination against K1 strain of P. falciparum, SYBR green-based assay, 72 h; type: cell-based; details: Plasmodium falciparum, K1, 72 h, read-out: IC50 against K1 strain of P. falciparum
Procedure: Based on the anecdotal evidence, two synthetic analogues of emetine dihydrochloride, (−)-R,S-dehydroemetine and (−)-S,S-dehydroisoemetine, were synthesized. Experiments to test drug efficacy were set up, and (−)-R,S-dehydroemetine was tested in 2-fold serial dilutions from 12.5 nM to 200 nM. A dose-response experiment was set up on synchronized ring stage cultures of the K1 strain of P. falciparum to be read at 72 h. […] (−)-S,S-dehydroisoemetine was tested in 2-fold serial dilutions from 0.625 μM to 10 μM. […]
Ring stage parasites were diluted to 0.5 to 1% parasitemia, 2.5% hematocrit (in a 96-well-plate format, 200-μl final well volume) and treated for 72 h. Dose-response parasitemia was determined using the SYBR green-based flow cytometer or plate reader method previously optimized in the laboratory ([14]).
Following drug efficacy experiments, 150-μl amounts from the control and drug-treated wells on a 96-well plate were transferred to microcentrifuge tubes, and samples were washed once with phosphate-buffered saline (PBS). […] Parasitemia was determined by measuring SYBR green fluorescence using the FITC channel of the BD FACSVerse flow cytometer system (blue laser; excitation laser line, 488 nm, with excitation maximum of 494 nm and emission maximum of […]) and cell size (forward scatter [FSC-A]). Fifty thousand events were recorded, in three replicates for each. […]

[2] = tested on: K1 strain P. falciparum, unsynchronized cultures; assay: IC50 speed assay (time course) using unsynchronized cultures; type: cell-based, Plasmodium falciparum; details: for 24-h IC50 / Time by which the IC50 was reached: unsynchronized cultures; for 24-h IC50: 24 h exposure; for Time by which the IC50 was reached: IC50 speed assay
Procedure: Following drug efficacy experiments, 150-μl amounts from the control and drug-treated wells on a 96-well plate were transferred to microcentrifuge tubes, and samples were washed once with phosphate-buffered saline (PBS). The supernatant was removed, and samples were incubated in the dark at room temperature for 20 min following the addition of 1 ml of 5× SYBR green solution (prepared by adding 5 μl of 10,000× SYBR green to 10 ml PBS). After staining, the samples were centrifuged for 1 min at 14,000 rpm and the supernatant was discarded. Samples were resuspended in 250 μl of 0.37% formaldehyde fixation solution prepared by diluting 36.5% formaldehyde (Sigma, UK) with PBS to the specified final concentration. The samples were placed in the refrigerator and incubated at 4°C for 15 min. Subsequently, PBS was used to wash the samples 3 times, and finally, the samples were suspended in 1 ml PBS. Parasitemia was determined by measuring SYBR green fluorescence using the FITC channel of the BD FACSVerse flow cytometer system (blue laser; excitation laser line, 488 nm, with excitation maximum of 494 nm and emission maximum of […]) and cell size (forward scatter [FSC-A]). Fifty thousand events were recorded, in three replicates for each. Fluorescence events in drug-treated samples were compared with those in their infected and uninfected blood counterparts and gated accordingly to obtain the percentages of parasitemia.
The IC50 speed assay was used to determine the speeds of action of the emetine analogues. Unsynchronized cultures of K1 strain P. falciparum were used, and parasites were grown in the presence of (−)-R,S-dehydroemetine and (−)-S,S-dehydroisoemetine for three incubation periods of 24 h, 48 h, and 72 h. The assays were analyzed by determining SYBR green fluorescence as described above.
The results for the infected-blood controls were set at 100% for normalization, and percentages of parasitemia for drug-treated samples were calculated relative to the results for the infected controls. For IC50 values, GraphPad Prism 5.0 was used to further process the data. IC50 values were calculated using nonlinear regression (GraphPad Prism 5.0) by using log-transformed drug concentrations plotted against the dose response. The log(inhibitor) versus normalized response-variable slope option was used for IC50 calculation. Emetine dihydrochloride was used as a control drug to validate the method.

hERG potassium channel = target: T1, hERG potassium channel (Homo sapiens, UniProt Q12809); assay: hERG channel inhibition assay (CHO cells, whole-cell voltage clamp, Cyprotex); type: cell-based; details: for selectivity ratio at 300 s / inhibition at 300 s, 0.016 µM / inhibition at 300 s, 0.08 µM / inhibition at 300 s, 0.4 µM / inhibition at 300 s, 2 µM / inhibition at 300 s, 10 µM / inhibition at 300 s, 50 µM: human; for selectivity ratio at 300 s: CHO cells expressing the hERG potassium channel, read-out: Selectivity index, IC50 hERG/IC50 parasites
T1 construct: host or cells: Chinese hamster ovary (CHO) cells
Procedure: For each replicate, the hERG response was calculated using the following equation: % hERG response = post-compound-application current (nA)/pre-compound-application current (nA) × 100.
The experiment to test the potential of emetine, (−)-R,S-dehydroemetine, and (−)-S,S-dehydroisoemetine to inhibit the hERG channel was outsourced to Cyprotex, UK. One-hundred-microliter amounts of a 20 mM concentration of each of the three compounds in DMSO was provided to Cyprotex. […] Chinese Hamster ovary cells expressing the hERG potassium channel were dispensed into 384-well planar arrays, and hERG tail currents were measured by whole-cell voltage clamping. Amphotericin B was used as a perforating agent that was circulated underneath the PatchPlate to gain electrical access to the cell. The pre-compound-application hERG current was measured. Emetine, (−)-R,S-dehydroemetine, and (−)-S,S-dehydroisoemetine in ranges of concentrations were then added to the cells, and a second recording of the hERG current was made. The test compound was left in contact with the cells for 300 s before currents were recorded. […] All buffers, cell suspensions, and drug compound solutions were at room temperature. The percentage of change in hERG current was measured and used to calculate an IC50 value.
Each concentration was tested in 4 replicate wells on the PatchPlate (maximum of 24 data points). Filters were applied to ensure that only acceptable cells were used to assess hERG inhibition.

T1 sequence (Q12809 whole entry): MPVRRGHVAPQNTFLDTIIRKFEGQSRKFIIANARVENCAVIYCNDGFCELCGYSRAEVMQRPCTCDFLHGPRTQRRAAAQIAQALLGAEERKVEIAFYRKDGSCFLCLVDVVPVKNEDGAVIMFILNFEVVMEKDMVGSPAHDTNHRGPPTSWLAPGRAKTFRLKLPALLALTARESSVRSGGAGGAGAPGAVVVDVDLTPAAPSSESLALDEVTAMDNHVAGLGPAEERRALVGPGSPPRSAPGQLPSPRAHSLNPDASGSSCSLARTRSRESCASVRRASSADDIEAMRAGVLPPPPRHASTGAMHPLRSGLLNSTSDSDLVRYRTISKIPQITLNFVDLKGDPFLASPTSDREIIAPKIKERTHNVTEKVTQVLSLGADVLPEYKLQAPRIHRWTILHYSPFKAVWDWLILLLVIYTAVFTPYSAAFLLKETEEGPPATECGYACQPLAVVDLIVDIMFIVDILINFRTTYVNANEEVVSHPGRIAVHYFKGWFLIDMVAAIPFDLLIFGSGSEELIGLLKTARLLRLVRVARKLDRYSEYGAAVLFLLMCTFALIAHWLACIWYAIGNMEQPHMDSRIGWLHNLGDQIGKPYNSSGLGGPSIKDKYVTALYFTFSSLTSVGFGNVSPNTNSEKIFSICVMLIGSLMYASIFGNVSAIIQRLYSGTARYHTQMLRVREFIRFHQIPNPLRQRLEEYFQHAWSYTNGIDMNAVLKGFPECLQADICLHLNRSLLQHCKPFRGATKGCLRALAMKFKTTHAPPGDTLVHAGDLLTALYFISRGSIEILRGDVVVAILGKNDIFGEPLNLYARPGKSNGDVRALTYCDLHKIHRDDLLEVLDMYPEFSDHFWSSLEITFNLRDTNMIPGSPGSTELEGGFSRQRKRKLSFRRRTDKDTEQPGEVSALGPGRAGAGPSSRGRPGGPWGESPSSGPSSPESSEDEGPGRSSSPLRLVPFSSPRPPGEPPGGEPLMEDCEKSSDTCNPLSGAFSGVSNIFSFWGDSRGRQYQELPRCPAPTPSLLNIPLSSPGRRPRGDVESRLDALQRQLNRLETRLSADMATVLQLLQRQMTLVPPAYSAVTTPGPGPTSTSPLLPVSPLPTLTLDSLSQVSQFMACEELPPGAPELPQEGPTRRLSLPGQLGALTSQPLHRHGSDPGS

## CCC1=C(C[C@H]2NCCc3cc(OC)c(OC)cc32)C[C@H]2c3cc(OC)c(OC)cc3CCN2C1 [(−)-R,S-dehydroemetine, (S)-2-((R)-6,7-dimethoxy-1,2,3,4-tetrahydro-isoquinolin-1-ylmethyl)-3-ethyl-9,10-dimethoxy-1,6,7,11b-tetrahydro-4H-pyrido[2,1-a]isoquinoline * dihydrobromide]
[1]
  IC50: 71 ± 6.1 nM
[2]; 25 nM, 24 hours
  % Parasitaemia: 99.25%
[2]; 25 nM, 48 hours
  % Parasitaemia: 95.85%
[2]; 25 nM, 72 hours
  % Parasitaemia: 98.62%
[2]; 50 nM, 24 hours
  % Parasitaemia: 93.88%
[2]; 50 nM, 48 hours
  % Parasitaemia: 69.64%
[2]; 50 nM, 72 hours
  % Parasitaemia: 89.44%
[2]; 100 nM, 24 hours
  % Parasitaemia: 89.00%
[2]; 100 nM, 48 hours
  % Parasitaemia: 30.44%
[2]; 100 nM, 72 hours
  % Parasitaemia: 17.06%
[2]; 200 nM, 24 hours
  % Parasitaemia: 77.03%
[2]; 200 nM, 48 hours
  % Parasitaemia: 22.37%
[2]; 200 nM, 72 hours
  % Parasitaemia: 13.20%
[2]; 400 nM, 24 hours
  % Parasitaemia: 72.09%
[2]; 400 nM, 48 hours
  % Parasitaemia: 19.29%
[2]; 400 nM, 72 hours
  % Parasitaemia: 11.63%
[2]
  24-h IC50: could not be reached within 24 h
  Time by which the IC50 was reached: ≤ 48 h
hERG potassium channel
  IC50: 19300 nM
  hERG channel inhibition (in words): not an hERG channel inhibitor
  selectivity ratio at 300 s: > 271
  inhibition at 300 s, 0.016 µM: 7.79%
  inhibition at 300 s, 0.08 µM: 6.34%
  inhibition at 300 s, 0.4 µM: 12.7%
  inhibition at 300 s, 2 µM: 7.21%
  inhibition at 300 s, 10 µM: 39.4%
  inhibition at 300 s, 50 µM: 61.4%

## CCC1=C(C[C@@H]2NCCc3cc(OC)c(OC)cc32)C[C@H]2c3cc(OC)c(OC)cc3CCN2C1 [(−)-S,S-dehydroisoemetine, (S)-2-((S)-6,7-dimethoxy-1,2,3,4-tetrahydro-isoquinolin-1-ylmethyl)-3-ethyl-9,10-dimethoxy-1,6,7,11b-tetrahydro-4H-pyrido[2,1-a]isoquinoline * dihydrobromide]
[1]
  IC50: 2070 ± 260 nM
[2]; 0.63 μM, 24 hours
  % Parasitaemia: 100.96%
[2]; 0.63 μM, 48 hours
  % Parasitaemia: 83.33%
[2]; 0.63 μM, 72 hours
  % Parasitaemia: 102.96%
[2]; 1.25 μM, 24 hours
  % Parasitaemia: 95.69%
[2]; 1.25 μM, 48 hours
  % Parasitaemia: 69.00%
[2]; 1.25 μM, 72 hours
  % Parasitaemia: 74.67%
[2]; 2.5 μM, 24 hours
  % Parasitaemia: 100.62%
[2]; 2.5 μM, 48 hours
  % Parasitaemia: 45.41%
[2]; 2.5 μM, 72 hours
  % Parasitaemia: 31.88%
[2]; 5 μM, 24 hours
  % Parasitaemia: 92.15%
[2]; 5 μM, 48 hours
  % Parasitaemia: 30.49%
[2]; 5 μM, 72 hours
  % Parasitaemia: 22.99%
[2]; 10 μM, 24 hours
  % Parasitaemia: 79.97%
[2]; 10 μM, 48 hours
  % Parasitaemia: 24.20%
[2]; 10 μM, 72 hours
  % Parasitaemia: 13.33%
[2]
  24-h IC50: could not be reached within 24 h
  Time by which the IC50 was reached: ≤ 48 h
hERG potassium channel
  IC50: 2990 nM
  hERG channel inhibition (in words): potent inhibitor
  selectivity ratio at 300 s: 1.48
  inhibition at 300 s, 0.016 µM: 8.13%
  inhibition at 300 s, 0.08 µM: 4.61%
  inhibition at 300 s, 0.4 µM: 9.33%
  inhibition at 300 s, 2 µM: 36%
  inhibition at 300 s, 10 µM: 70.7%
  inhibition at 300 s, 50 µM: 96.9%
